# Activity calls are given as the source filed them.
# Assays:
# [1] = target: T1, Exodeoxyribonuclease V (Escherichia coli (strain K12), UniProt P04993+P07648+P08394); experiment: E. coli RecBCD inhibitors, dose response, counter-screen for AddAB inhibitor project, absorbance, V66 E. coli, mutant T4 phage (AID 492957); format: functional, cell-based, Escherichia coli str. K-12 substr. MG1655
# T1 sequence (P04993 whole entry): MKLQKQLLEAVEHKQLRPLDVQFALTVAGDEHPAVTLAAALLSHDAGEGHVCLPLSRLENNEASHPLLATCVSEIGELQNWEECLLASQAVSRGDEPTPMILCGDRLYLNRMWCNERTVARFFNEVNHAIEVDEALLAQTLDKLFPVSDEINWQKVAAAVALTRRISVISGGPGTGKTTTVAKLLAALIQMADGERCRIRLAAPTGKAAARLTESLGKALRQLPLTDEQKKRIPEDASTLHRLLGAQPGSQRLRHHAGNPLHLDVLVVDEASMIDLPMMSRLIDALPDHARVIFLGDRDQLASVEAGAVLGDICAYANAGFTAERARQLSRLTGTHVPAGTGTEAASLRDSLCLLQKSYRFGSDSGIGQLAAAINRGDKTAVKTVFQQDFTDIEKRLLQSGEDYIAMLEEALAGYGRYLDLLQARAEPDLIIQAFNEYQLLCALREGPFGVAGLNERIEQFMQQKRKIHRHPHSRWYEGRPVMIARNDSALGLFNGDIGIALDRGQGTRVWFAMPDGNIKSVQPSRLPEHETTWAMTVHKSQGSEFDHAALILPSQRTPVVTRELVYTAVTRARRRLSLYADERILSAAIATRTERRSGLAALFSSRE
# T1 sequence (P07648 whole entry): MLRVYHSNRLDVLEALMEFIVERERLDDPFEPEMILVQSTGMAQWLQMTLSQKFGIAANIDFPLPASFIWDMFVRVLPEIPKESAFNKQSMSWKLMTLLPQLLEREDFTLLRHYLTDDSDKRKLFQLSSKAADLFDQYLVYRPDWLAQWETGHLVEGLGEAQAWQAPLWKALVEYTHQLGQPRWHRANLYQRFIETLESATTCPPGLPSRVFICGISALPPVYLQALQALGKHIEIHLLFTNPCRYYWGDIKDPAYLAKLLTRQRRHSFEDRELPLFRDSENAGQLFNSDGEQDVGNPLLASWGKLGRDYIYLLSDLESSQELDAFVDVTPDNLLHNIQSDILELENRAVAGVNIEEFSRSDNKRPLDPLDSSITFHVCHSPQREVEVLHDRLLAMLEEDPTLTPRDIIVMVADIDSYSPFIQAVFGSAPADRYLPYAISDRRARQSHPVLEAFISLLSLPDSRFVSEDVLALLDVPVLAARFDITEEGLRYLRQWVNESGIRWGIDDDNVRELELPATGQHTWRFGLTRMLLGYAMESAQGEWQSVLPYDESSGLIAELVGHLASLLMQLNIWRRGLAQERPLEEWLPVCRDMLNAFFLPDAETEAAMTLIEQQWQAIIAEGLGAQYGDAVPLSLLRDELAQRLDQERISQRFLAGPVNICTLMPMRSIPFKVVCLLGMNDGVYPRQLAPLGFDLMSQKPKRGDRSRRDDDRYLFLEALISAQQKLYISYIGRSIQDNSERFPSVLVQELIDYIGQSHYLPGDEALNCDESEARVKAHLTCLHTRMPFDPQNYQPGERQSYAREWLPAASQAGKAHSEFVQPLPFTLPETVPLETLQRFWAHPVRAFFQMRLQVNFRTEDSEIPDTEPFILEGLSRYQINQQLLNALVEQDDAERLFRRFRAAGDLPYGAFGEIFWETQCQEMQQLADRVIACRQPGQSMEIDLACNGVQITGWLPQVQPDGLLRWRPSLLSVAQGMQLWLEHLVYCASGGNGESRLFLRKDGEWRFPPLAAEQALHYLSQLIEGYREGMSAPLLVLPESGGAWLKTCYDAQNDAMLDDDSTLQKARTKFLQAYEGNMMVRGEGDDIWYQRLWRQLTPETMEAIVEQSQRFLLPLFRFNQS
# T1 sequence (P08394 whole entry): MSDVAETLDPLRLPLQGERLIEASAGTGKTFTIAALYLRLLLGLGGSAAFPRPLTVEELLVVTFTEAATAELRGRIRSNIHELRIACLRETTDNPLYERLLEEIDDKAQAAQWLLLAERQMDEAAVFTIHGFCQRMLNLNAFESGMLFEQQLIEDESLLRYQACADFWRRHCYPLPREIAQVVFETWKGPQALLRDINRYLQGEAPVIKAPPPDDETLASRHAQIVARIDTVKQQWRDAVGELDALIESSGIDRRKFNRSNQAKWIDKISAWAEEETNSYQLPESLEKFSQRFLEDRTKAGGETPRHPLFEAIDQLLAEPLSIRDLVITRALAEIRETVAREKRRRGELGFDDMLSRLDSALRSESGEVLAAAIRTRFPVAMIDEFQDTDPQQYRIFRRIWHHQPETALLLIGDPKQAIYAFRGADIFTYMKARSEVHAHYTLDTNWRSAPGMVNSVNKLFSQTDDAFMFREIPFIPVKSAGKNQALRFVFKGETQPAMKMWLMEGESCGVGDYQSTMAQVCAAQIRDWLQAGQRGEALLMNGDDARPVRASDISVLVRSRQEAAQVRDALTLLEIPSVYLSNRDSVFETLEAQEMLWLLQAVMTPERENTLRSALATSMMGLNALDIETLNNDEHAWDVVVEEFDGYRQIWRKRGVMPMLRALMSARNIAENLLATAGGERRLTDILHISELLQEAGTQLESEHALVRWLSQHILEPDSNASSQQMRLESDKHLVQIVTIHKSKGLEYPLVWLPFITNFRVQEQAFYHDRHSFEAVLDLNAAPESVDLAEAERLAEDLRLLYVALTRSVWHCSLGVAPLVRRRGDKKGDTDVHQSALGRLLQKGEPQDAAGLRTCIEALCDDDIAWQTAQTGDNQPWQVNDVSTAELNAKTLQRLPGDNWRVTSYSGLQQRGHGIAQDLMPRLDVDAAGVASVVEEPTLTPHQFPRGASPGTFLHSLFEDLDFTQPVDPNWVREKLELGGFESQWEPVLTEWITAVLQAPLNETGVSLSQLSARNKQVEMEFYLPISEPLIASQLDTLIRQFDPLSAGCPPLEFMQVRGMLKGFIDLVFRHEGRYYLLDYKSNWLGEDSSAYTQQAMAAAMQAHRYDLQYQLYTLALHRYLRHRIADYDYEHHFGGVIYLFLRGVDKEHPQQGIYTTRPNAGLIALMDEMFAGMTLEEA
# [2] = Counterscreen for AddAB inhibitors: absorbance-based bacterial cell-based high throughput dose response assay for inhibitors of bacterial viability. [Related pubchem assays (depositor defined):AID435030, AID449728, AID449731, AID488942, AID488955, AID488956]; format: functional
# [3] = target: Beta-galactosidase (Escherichia coli, UniProt Q8VNN2); experiment: PubChem AID 485352; format: functional
# [4] = target: T2, Type-1 angiotensin II receptor (Homo sapiens, UniProt P30556); experiment: AT1 receptor antagonists, dose response, selectivity assay for APJ receptor antagonist project, cell-based, uHTS hits (AID 463214); format: functional;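 note: antagonist potency against angiotensin II stimulated AT1 response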
# T2 sequence (P30556 whole entry): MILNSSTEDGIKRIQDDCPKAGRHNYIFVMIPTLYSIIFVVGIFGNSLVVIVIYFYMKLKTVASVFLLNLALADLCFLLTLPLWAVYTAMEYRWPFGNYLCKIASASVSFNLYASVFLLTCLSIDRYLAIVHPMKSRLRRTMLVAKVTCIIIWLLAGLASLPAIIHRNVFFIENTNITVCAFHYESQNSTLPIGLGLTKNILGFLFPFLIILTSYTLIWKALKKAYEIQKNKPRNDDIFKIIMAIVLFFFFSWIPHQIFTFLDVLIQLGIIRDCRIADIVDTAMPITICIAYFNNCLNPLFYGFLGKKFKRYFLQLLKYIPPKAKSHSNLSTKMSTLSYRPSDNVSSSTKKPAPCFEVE
# [5] = target: T3, E3 ubiquitin-protein ligase XIAP (Homo sapiens, UniProt P98170); experiment: Counter Screen using XIAP-Bir3 for Chemical Antagonists of Bir1/2 domains of IAP-family anti-apoptotic proteins. [Related pubchem assays (depositor defined):AID1018, AID1449, AID1514, AID1638, AID1749, AID1750, AID488957, AID488963]
# [6] = target: T3, E3 ubiquitin-protein ligase XIAP; experiment: XIAP antagonists, biochemical, IAP family, fluorescence polarization (AID 1018); format: functional
# [7] = target: Tumor necrosis factor (Homo sapiens, UniProt P01375); experiment: TNFa-triggered NF-kB activation inhibitors, SAR follow-up, cell-based, revised (AID 2337); format: functional
# [8] = target: T4, Nucleotide-binding oligomerization domain-containing protein 1 (Homo sapiens, UniProt Q9Y239); experiment: NOD1 signaling inhibitors, SAR follow-up, revised (AID 2333); format: functional
# T4 sequence (Q9Y239 whole entry): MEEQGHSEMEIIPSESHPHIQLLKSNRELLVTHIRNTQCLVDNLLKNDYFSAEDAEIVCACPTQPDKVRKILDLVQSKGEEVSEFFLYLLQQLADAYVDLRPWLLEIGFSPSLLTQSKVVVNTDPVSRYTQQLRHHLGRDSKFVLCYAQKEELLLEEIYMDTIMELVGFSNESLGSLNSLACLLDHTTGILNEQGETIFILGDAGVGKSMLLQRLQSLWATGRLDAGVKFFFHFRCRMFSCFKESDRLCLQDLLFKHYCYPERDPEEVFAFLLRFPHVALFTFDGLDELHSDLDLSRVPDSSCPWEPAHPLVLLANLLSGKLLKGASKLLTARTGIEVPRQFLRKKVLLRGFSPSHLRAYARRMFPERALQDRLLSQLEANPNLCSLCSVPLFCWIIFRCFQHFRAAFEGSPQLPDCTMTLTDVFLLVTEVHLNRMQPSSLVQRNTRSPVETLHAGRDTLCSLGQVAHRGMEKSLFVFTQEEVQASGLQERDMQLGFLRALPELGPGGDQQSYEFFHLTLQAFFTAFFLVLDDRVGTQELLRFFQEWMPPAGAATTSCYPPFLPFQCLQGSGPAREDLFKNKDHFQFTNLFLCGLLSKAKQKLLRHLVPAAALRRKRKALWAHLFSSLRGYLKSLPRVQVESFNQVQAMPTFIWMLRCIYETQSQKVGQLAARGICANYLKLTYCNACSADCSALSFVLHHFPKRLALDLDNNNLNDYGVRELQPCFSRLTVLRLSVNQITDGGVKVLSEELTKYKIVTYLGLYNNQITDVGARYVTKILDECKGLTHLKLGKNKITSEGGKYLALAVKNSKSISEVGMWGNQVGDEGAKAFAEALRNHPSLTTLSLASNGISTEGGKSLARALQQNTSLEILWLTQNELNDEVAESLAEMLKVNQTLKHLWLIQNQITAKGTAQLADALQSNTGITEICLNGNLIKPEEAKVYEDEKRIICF
# [9] = test system: HEK293; experiment: cells; conditions: Homo sapiens;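 note: cells exposed to compound for 14 hours overnight before viability readout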
# [10] = target: T5, Ubiquitin-conjugating enzyme E2 N (Homo sapiens, UniProt P61088); format: functional;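 note: Dose-response confirmation in a TR-FRET assay detecting UBC13-driven polyubiquitin chain formation, inhibition measured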
# T5 sequence (P61088 whole entry): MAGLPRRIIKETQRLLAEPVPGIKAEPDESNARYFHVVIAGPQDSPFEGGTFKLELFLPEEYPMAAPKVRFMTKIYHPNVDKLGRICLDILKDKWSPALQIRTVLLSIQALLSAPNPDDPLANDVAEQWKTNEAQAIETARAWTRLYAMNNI
# [11] = target: Troponin, cardiac muscle (Homo sapiens, UniProt P19429+P45379+P63316); experiment: Fluorescence-based biochemical high throughput dose response assay for activators of the calcium sensitivity of cardiac Regulated Thin Filaments (RTF). [Related pubchem assays (depositor defined):AID493008, AID493018, AID504382, AID504383]; format: protein-complex assay
# [12] = insulin promoter down-regulators in MIN6 cells, imaging, high-content screening, mouse beta cells (AID 1628); format: functional
# [13] = cytotoxicity in MIN6 insulinoma cells, dose response, cytotoxicity control, cell-based, mouse insulinoma (AID 2122); format: functional;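 note: confirmatory high-throughput counterscreen run to flag cytotoxic compounds; mouse MIN-6 beta cells carrying an insulin promoter eGFP reporter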
# [14] = test system: Vero; experiment: cells; format: functional, cell-based; conditions: Chlorocebus sabaeus
# [15] = HEp-2 cell cytotoxicity, dose response, cytotoxicity control for RSV inhibitor project, HTS (AID 2410); format: functional; conditions: human respiratory syncytial virus
# T3 sequence (P98170 whole entry): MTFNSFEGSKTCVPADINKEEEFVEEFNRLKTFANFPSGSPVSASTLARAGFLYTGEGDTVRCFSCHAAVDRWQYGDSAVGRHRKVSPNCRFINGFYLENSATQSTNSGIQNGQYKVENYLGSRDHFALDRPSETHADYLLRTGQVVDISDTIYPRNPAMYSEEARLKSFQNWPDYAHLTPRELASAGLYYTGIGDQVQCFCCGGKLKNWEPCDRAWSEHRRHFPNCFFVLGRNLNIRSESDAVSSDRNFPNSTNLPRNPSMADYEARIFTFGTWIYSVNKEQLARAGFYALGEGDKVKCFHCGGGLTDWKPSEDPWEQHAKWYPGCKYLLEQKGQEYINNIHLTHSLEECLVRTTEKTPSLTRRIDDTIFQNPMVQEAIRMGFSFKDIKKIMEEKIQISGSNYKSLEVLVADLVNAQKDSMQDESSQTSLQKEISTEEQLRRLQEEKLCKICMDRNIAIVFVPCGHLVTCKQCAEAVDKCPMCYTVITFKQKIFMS
# Beta-galactosidase, sequence (Q8VNN2 whole entry): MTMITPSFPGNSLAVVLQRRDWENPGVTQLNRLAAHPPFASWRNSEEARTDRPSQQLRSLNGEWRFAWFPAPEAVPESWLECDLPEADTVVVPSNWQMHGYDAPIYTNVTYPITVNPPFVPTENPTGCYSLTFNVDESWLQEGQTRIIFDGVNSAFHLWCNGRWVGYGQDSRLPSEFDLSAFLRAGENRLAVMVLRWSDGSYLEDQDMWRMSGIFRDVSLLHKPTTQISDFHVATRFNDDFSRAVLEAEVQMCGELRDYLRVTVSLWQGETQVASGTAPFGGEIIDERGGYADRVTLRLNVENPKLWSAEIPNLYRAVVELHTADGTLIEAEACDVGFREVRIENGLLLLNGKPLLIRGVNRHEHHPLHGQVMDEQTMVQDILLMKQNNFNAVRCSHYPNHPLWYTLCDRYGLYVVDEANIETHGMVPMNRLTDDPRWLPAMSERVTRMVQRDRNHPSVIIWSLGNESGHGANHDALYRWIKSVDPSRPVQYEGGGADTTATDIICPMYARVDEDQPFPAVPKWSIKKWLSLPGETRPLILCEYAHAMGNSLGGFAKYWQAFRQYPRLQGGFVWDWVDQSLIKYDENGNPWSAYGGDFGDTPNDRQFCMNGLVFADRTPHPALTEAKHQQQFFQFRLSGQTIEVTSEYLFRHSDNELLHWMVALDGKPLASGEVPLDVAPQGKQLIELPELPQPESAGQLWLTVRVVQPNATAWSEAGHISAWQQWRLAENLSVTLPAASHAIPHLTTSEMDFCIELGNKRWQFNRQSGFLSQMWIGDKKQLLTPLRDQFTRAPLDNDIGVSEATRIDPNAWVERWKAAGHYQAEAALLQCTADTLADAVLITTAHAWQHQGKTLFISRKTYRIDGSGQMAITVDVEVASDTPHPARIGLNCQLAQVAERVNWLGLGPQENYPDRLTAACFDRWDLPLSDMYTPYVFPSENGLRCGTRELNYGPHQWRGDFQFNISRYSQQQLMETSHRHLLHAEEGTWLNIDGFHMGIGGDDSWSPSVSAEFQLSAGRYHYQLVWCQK
# Tumor necrosis factor, sequence (P01375 whole entry, the tested form may be a part): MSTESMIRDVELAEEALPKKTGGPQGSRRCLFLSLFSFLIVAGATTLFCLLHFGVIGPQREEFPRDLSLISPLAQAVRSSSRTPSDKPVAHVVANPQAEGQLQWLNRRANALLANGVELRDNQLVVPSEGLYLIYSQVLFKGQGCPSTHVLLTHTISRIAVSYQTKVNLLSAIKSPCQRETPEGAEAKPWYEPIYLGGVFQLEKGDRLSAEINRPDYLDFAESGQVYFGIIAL
structure (smiles),measurement,setting,value
NC(=O)c1ccsc1NC(=O)COC(=O)c1ccc([N+](=O)[O-])o1,IC50,[1],> 119 µM (inactive)
same,IC50,[2],> 39.5 µM (inactive)
O=C(COC(=O)c1cc2ccccc2oc1=O)c1cccc([N+](=O)[O-])c1,EC50,[3],> 40 µM (inactive)
same,IC50,[4],> 40 µM (not active)
COc1cccc(/C(O)=C/C=N/c2cc(C)ccc2O)c1,IC50,[5],> 100 µM (inactive)
same,IC50,[6],> 100 µM (not active)
CC/C(=N\NS(C)(=O)=O)c1ccccc1,IC50,[5],> 100 µM (inactive)
same,IC50,[6],> 100 µM (not active)
CCCOc1ccc(C=NN=C(S)Nc2ccccc2[N+](=O)[O-])c(O)c1,IC50,[7],0.88 µM (active)
same,IC50,[8],7.73 µM (active)
same,IC50,[9],> 20 µM (inactive)
COc1cccc(N2CC(C)Cn3c2nc2c3c(=O)[nH]c(=O)n2C)c1 (centres undefined),EC50,[3],> 40 µM (inactive)
same,IC50,[4],> 40 µM (not active)
CCC[C@@H](CN1CCC[C@H]1CN1C(N)=NC[C@@H]1Cc1ccccc1)N1C[C@@H](Cc2ccccc2)N(CCCC2CCCC2)C1=N,IC50,[10],> 20 µM (inactive)
same,EC50,[11],> 71.4 µM (inactive)
c1ccc(N2CCN(Cc3ccnc4ccccc34)CC2)cc1,IC50,[12],3.42 µM (active)
same,IC50,[13],2.84 µM (active)
Brc1ccc2[nH]c3c(c2c1)CCC3,IC50,[14],> 25 µM (active)
Nc1ccc(C(=O)OCCCc2nc3cc4ccccc4cc3[nH]2)cc1,CC50,[15],46 µM (active)
same,IC50,[14],> 25 µM (active)
COc1ccc2c(c1)CCc1c(C(=O)Nc3cc(C)n(Cc4ccc(Cl)cc4)n3)noc1-2,IC50,[5],> 100 µM (inactive)
same,IC50,[6],> 100 µM (not active)
C(#Cc1ccccc1)C[N+]1(CC#Cc2cccc3ccccc23)CCOCC1,IC50,[12],2.29 µM (active)
same,IC50,[13],2.19 µM (active)

# Source: ChEMBL document CHEMBL1201862, “PubChem BioAssay data set” (2004)
